Here are results for 81 compounds from the METLIN SMRT retention time set (Domingo-Almenara et al. 2019).

This series can be described thus: gradient 5% acetonitrile 3 min, to 50% in 2 min, to 85% in 15 min, held 3 min, 100 µL/min. The note with it: column: Zorbax Extend-C18 2.1 x 50 mm; eluents: water / acetonitrile, 0.1% formic acid. Put shortly:
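Pure standards were analyzed in mixtures of ~100 molecules using HPLC coupled to a quadrupole time-of-flight mass spectrometer, in both positive and negative ionization mode. Separation used a Zorbax Extend-C18 column (2.1 × 50 mm, 1.8 μm) at 100 μL/min, with water and acetonitrile each containing 0.1% formic acid. Dead and dwell volumes were 40 μL and 900 μL, and data were collected over 3 months. Retention time was read from computationally picked adduct peaks, each inspected manually.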
Turning to `COc1ccc(-c2nc3nccc(-c4ccsc4)n3n2)c(OC)c1`, the RP-LC retention time worked out at 832 s. Under `Cc1cnc(-c2ccccc2)n1C1CCCN(S(=O)(=O)c2ccc3c(c2)OCCO3)C1` (stereo unspecified) stands 712 s; under `CCOC(=O)CNC(=O)Cn1cnc2c(oc3ccccc32)c1=O`, 624 s. The result for `Cc1nn(CCC(=O)NCCCN2CCc3ccccc3C2)c(=O)c2nn(-c3ccccc3)c(C)c12` reads 648 s; that for `CCOc1ccc(CNC(=O)C2CCCN(S(=O)(=O)c3ccc4c(ccn4CC)c3)C2)cc1` (stereo unspecified), 1040 s. Regarding `O=C(NCCN1CCCCCC1)C1CCN(c2cnc(N3CCCC3)nc2)CC1`, the RP-LC retention time amounted to 569 s.

In the case of `O=C(c1cc2ccccc2[nH]1)N1CCN(c2cc(-c3cccnc3)[nH]n2)CC1`, the RP-LC retention time is 630 s. The result for `Cn1ncc(N2CCC(C(=O)NC3CCCC3)C2)cc1=O` (stereo unspecified) reads 630 s; that for `O=C(O)c1nnn(-c2cccc(Br)c2)c1C(F)(F)F`, 836 s.

In turn, `Brc1ccc2nc(N3CCNCC3)sc2c1` displayed an RP-LC retention time of 557 s.

Consider `Cc1cccc(OCC(=O)NC2CCN(Cc3c(C)noc3C)CC2)c1`, for which the RP-LC retention time worked out at 622 s. The result for `Cc1cccc(CC(=O)N2CCCn3cc(-c4cccc(C#N)c4)nc32)c1` reads 782 s; that for `O=C(Nc1nc2c(s1)COc1ccccc1-2)c1cc(Cl)ccc1Cl`, 1030 s. Take `CC(O)(CCc1ccccc1)CNC(=O)C(=O)NCCC1=CCCCC1` (stereo unspecified): the RP-LC retention time was found to be 936 s. The result for `CCn1c(=O)c(N2CCC(NC(=O)Nc3cc(C)cc(C)c3)CC2)nc2cccnc21` reads 1010 s; that for `CC1(O)CCOC2(CCN(C(=O)c3ccc(Br)o3)CC2)C1` (stereo unspecified), 690 s; that for `O=C(c1cc(C2CC2)n(C2CCS(=O)(=O)C2)n1)N1CCc2ccccc21` (stereo unspecified), 768 s. Under `CCCn1cc(C(=O)Nc2ccc(F)cc2C)c2cccnc21` stands 882 s; under `CCNc1cc(N2CCC(CCC(=O)NC(CC)CC)CC2)ncn1`, 639 s; under `CCc1nc(N)n(CC(=O)NCc2ccc3c(c2)OCO3)c(=O)c1C`, 556 s. The result for `COCCn1ccc2nc(C)c(C(=O)N3CCN(c4ncccn4)CC3)cc2c1=O` reads 609 s; that for `N#Cc1ccc(C(=O)NC(c2ccccc2)c2nnc(N3CCCC3)o2)cc1` (stereo unspecified), 765 s; that for `CC1CCN(C(=O)c2cn(-c3cc(N4CCOCC4)ncn3)cn2)CC1`, 729 s. `CCOC(=O)c1cccc(NC(=O)c2c(OCC)cc(=O)n3c2CCCC3)c1`: the RP-LC retention time turned out to be 772 s. In the case of `CN1CCN(CCCNC(=O)c2noc3c2CCCCC3)CC1`, the RP-LC retention time was 584 s. Under `COc1ccc(C2CC(=O)N(c3ccc(F)c(Cl)c3)C(=O)C2)cc1` stands 980 s; under `COC(=O)Nc1ccc(-c2nc(N3CCOCC3)c3cnn(C4CCN(C(=O)OC)CC4)c3n2)cc1`, 861 s. As to `CCCc1noc(-c2ccc(-n3ncc(C(=O)NC4CCCC4)c3C)nc2)n1`, the RP-LC retention time was determined as 1030 s. Under `COc1ccc(OC)c(S(=O)(=O)N2CCCOCCNC(=O)[C@@H]3CCC[C@@H]32)c1` stands 720 s; under `CC(=O)N1CCC2(CC1)Oc1ccccc1C1CC(c3ccc4c(c3)OCO4)=NN12` (stereo unspecified), 783 s; under `Cc1c(S(=O)(=O)NC2CC2)c(C)n(C)c1-c1nnc(C2CCC2)o1`, 787 s. The result for `O=C(Cc1nnc(-c2cnccn2)o1)Nc1cccc(C(F)(F)F)c1` reads 780 s; that for `Cc1ccc(-c2noc(C3CCCN3C(=O)c3ccccc3F)n2)cc1` (stereo unspecified), 1030 s; that for `COCCNC(=O)NCCn1c(-c2ccc(C)cc2)nc2ccccc21`, 588 s.

Consider `O=C1COc2cc(S(=O)(=O)N3CCC(C(=O)N4CCOCC4)CC3)c(Cl)cc2N1`, for which the RP-LC retention time was 659 s. The result for `CCn1ccc(C(=O)N2CCCn3nc(-c4cccs4)cc3C2)n1` reads 748 s; that for `Cc1ccc(-c2ncccc2CNS(=O)(=O)Cc2ccccc2F)cc1`, 693 s; that for `COc1ccc(C2CC(=O)N(c3ccc(C)cc3C)C(=O)C2)cc1`, 941 s. Under `Cn1cc(-c2cc3n(n2)CCC(=O)N3CCCC(=O)N2CCN(c3ccccc3)CC2)c2ccccc21` stands 859 s; under `O=C(NCc1csc(-c2cccs2)n1)C1CCN(C(=O)c2ccc(F)cc2)CC1`, 743 s. The result for `Cc1nc(-c2ccc(Cl)cc2)oc1COC(C)(C)C(=O)O` reads 909 s; that for `N#Cc1cccc(NC(=O)C2CCN(S(=O)(=O)c3cc(C(=O)N4CCOCC4)cs3)CC2)c1`, 748 s. For the compound `CCNS(=O)(=O)c1ccc(Cl)c(-c2nnc(-c3ccccc3)o2)c1`, the RP-LC retention time came out at 919 s. In turn, `Cc1cc(-c2nnc(NC(=O)c3ccc4c(c3)OCCO4)o2)n(C)n1` displayed an RP-LC retention time of 655 s.

`COc1cc2c(cc1OC)C(C(=O)Nc1ccc(C(C)C)cc1)C(c1cccnc1)N(C)C2=O` (stereo unspecified) returned an RP-LC retention time of 720 s. The result for `CC1CCN(C(=O)C2CCN(S(C)(=O)=O)c3ccccc3O2)CC1` (stereo unspecified) reads 802 s; that for `O=C(NCCc1ccsc1)C(=O)NCC(F)(F)F`, 756 s; that for `CCN(CC)S(=O)(=O)c1ccc(Cl)c(-c2nnc(-c3ccccc3)o2)c1`, 1120 s. The result for `Cc1cc2c(c(=O)n(-c3ccccc3)c(=O)n2CC(=O)Nc2ccc3c(c2)OCO3)n1C` reads 760 s; that for `Cc1ccn(-c2ccc(N3CCN(C(=O)c4c(F)cccc4Cl)CC3)nn2)n1`, 752 s. The result for `COc1ccc(C2CCCN2C(=O)Cc2cccs2)cc1` (stereo unspecified) reads 875 s; that for `COc1ccc(-n2nnc(C(=O)O)c2-c2ccccn2)cc1`, 654 s; that for `Cc1ccn2cc(-c3ccc(NS(=O)(=O)c4ccc(-c5csc(C)n5)s4)cc3)nc2n1`, 679 s. As to `Cc1ccc(-c2cc3n(n2)CCCN(C(=O)CCCC(=O)n2nc(C)c4ccccc42)C3)o1`, the RP-LC retention time turned out to be 859 s.

The compound `CC(NS(=O)(=O)c1ccc2c(c1)CCN2C(=O)N1CCCC1)C(=O)N1CCCCC1` (stereo unspecified) yielded an RP-LC retention time of 720 s. The result for `CCS(=O)(=O)N1CC(=O)N(c2cc(C)ccc2C)C(C)(C(=O)NCc2ccc(F)cc2)C1` (stereo unspecified) reads 861 s. Under `CCOc1ccc(NC(=O)c2c(Cl)ccc(Cl)c2OC)cc1` stands 913 s. The result for `CCOC(=O)C1=C(CNc2ccc(F)cc2F)NC(=O)NC1c1ccccc1` (stereo unspecified) reads 886 s; that for `CCC(C)NC(=O)C1CCN(c2nc3cccnc3s2)CC1` (stereo unspecified), 664 s; that for `O=C(Nc1ccccc1)N[C@H]1C[C@H](C(=O)O)Nc2cc(Cl)cc(Cl)c21`, 799 s. Compound `CCc1cccc(NC(=O)c2cc3sccc3n2Cc2ccc(F)cc2)c1` showed an RP-LC retention time of 1260 s. Under `O=C(c1ccc(N2C[C@H]3C[C@H](C2)[C@H]2CCCC(=O)N2C3)nc1)N1CCC2(CC1)OCCO2` stands 584 s; under `COc1ccc(OC)c(CNC(=O)c2c(C)sc3ccn(CC(C)C)c(=O)c23)c1`, 975 s. The result for `COc1ccc(-c2nc(Cc3noc(-c4ccccc4F)n3)c(C)o2)cc1` reads 1080 s.

Regarding `CCC(C)OC(=O)c1[nH]c2c(c1C)C(=O)CC(c1ccc(N(C)C)cc1)C2` (stereo unspecified), the RP-LC retention time is 764 s. Under `CCn1cc(C)c(C(=O)O)c1CC(=O)N1CCN(C2CCCCC2)CC1` stands 597 s; under `Cc1oc(C2CCN(S(=O)(=O)c3ccccc3F)CC2)nc1C(=O)N(C)C`, 781 s.

On to `CC(=O)N1CCc2cc(CNC(=O)c3ccnn3C)ccc21`, for which the RP-LC retention time turned out to be 622 s.

In the case of `CCOc1cc(-c2ccc(F)cc2)nc2ccc(NC(=O)C3CCC3)cc12`, the RP-LC retention time came to 774 s. The result for `O=C(c1ccccc1N1C(=O)c2cccc3cccc(c23)C1=O)N1CCOCC1` reads 692 s; that for `Cc1ccc(C)c(-n2ccn(Cc3nc(-c4ccc(C(C)(C)C)cc4)no3)c(=O)c2=O)c1`, 1130 s; that for `Cc1cc(C2CCCN2C(=O)c2c(F)cccc2Cl)no1` (stereo unspecified), 773 s. Compound `CCOC(=O)c1ccccc1NC(=O)C1CCCN(c2ncnc3c2nc2n3CCCCC2)C1` (stereo unspecified) displayed an RP-LC retention time of 876 s. `COC[C@@H]1[C@H](C(=O)NCCC(C)C)CCC(=O)N1C`: the RP-LC retention time was found to be 643 s. The result for `O=C(NCc1cccnc1)C1CCN(C(=O)c2ncn3c2COC(c2ccccc2)C3)CC1` (stereo unspecified) reads 568 s; that for `Cc1cccc(NC(=O)c2cc(C)n3nccc3n2)c1C`, 995 s.

Turning to `O=C(CCC1CCCN(S(=O)(=O)c2cccc(F)c2)C1)NCC1CC1` (stereo unspecified), the RP-LC retention time is 822 s. Under `CCN1C(=O)c2cccnc2Sc2cc(NC(=O)Cc3ccc(C)cc3)ccc21` stands 855 s; under `CCSc1nc2ccc(NS(=O)(=O)c3ccccc3F)cc2s1`, 964 s; under `CCCOc1nccnc1NC1CCN(C(=O)c2cccs2)CC1`, 814 s. The result for `COc1cccc(CC(=O)NC(CC(C)C)C(=O)Nc2nc3ccccc3[nH]2)c1` (stereo unspecified) reads 721 s.
